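All cell lines were grown in 96-well plates and treated with compound for 48 hours. GI50 = concentration required for 50% inhibition of growth. The concentration for full growth arrest is given as TGI.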
Tests used:
Test in all cases: growth of human tumour cells (NCI), 48 h
[1] = system: 786-0 renal
[2] = system: A498 renal
[3] = system: A549 NSCLC
[4] = system: ACHN renal
[5] = system: BT-549 breast
[6] = system: CAKI-1 renal
[7] = system: CCRF-CEM leukemia
[8] = system: COLO 205 colon
[9] = system: EKVX NSCLC
[10] = system: HCC-2998 colon
[11] = system: HCT-116 colon
[12] = system: HCT-15 colon
[13] = system: HL-60(TB) leukemia
[14] = system: HOP-62 NSCLC
[15] = system: HOP-92 NSCLC
[16] = system: HS 578T breast
[17] = system: HT29 colon
[18] = system: IGROV1 ovarian
[19] = system: K-562 leukemia
[20] = system: LOX IMVI melanoma
[21] = system: M14 melanoma
[22] = system: MALME-3M melanoma
[23] = system: MCF7 breast
[24] = system: MDA-MB-231 breast
[25] = system: MDA-MB-435
[26] = system: MDA-MB-468 breast
[27] = system: MOLT-4 leukemia
[28] = system: NCI-H226 lung
[29] = system: NCI-H23 lung
[30] = system: NCI-H460 lung
[31] = system: NCI-H522 lung
[32] = system: OVCAR-3 ovarian
[33] = system: OVCAR-5 ovarian
[34] = system: OVCAR-8 ovarian
[35] = system: PC-3 prostate
[36] = system: RPMI-8226 leukemia
[37] = system: RXF 393 renal
[38] = system: SF-268 CNS
[39] = system: SF-295 CNS
[40] = system: SF-539 CNS
[41] = system: SK-MEL-2 melanoma
[42] = system: SK-MEL-28 melanoma
[43] = system: SK-MEL-5 melanoma
[44] = system: SK-OV-3 ovarian
[45] = system: SN12C renal
[46] = system: SNB-19 CNS
[47] = system: SNB-75 CNS
[48] = system: SR leukemia
[49] = system: SW-620 colon
[50] = system: T-47D breast
[51] = system: TK-10 renal
[52] = system: U251 CNS
[53] = system: UACC-257 melanoma
[54] = system: UACC-62 melanoma
[55] = system: UO-31 renal

## C=C1CC[C@@H]2[C@]3(C)COC(c4cn(-c5ccccc5)nc4-c4ccccc4)O[C@@H]3CC[C@@]2(C)[C@@H]1C/C=C1/C(=O)OC[C@H]1O (stereo not given in full)
[1]
  GI50: 2030 nM
  TGI: 4470 nM
[2]
  GI50: 2340 nM
  TGI: 6470 nM
[3]
  GI50: 2490 nM
  TGI: 7110 nM
[4]
  GI50: 1640 nM
  TGI: 3050 nM
[5]
  GI50: 1640 nM
  TGI: 3160 nM
[6]
  GI50: 1860 nM
  TGI: 4810 nM
[7]
  GI50: 590 nM
  TGI: 3370 nM
[8]
  GI50: 2010 nM
  TGI: 3570 nM
[9]
  GI50: 2070 nM
  TGI: 4650 nM
[10]
  GI50: 1680 nM
  TGI: 3110 nM
[11]
  GI50: 1610 nM
  TGI: 3550 nM
[12]
  GI50: 1720 nM
  TGI: 3450 nM
[13]
  GI50: 2320 nM
  TGI: 7460 nM
[14]
  GI50: 1870 nM
  TGI: 3840 nM
[15]
  GI50: 1530 nM
  TGI: 2990 nM
[16]
  GI50: 2310 nM
  TGI: 6540 nM
[17]
  GI50: 2370 nM
  TGI: 6770 nM
[18]
  GI50: 1770 nM
  TGI: 3440 nM
[19]
  GI50: 2970 nM
  TGI: > 100000 nM
[20]
  GI50: 1540 nM
  TGI: 3000 nM
[21]
  GI50: 1810 nM
  TGI: 3620 nM
[22]
  GI50: 1730 nM
  TGI: 3180 nM
[23]
  GI50: 2000 nM
  TGI: 9090 nM
[24]
  GI50: 1720 nM
  TGI: 3250 nM
[25]
  GI50: 1860 nM
  TGI: 4190 nM
[26]
  GI50: 1690 nM
  TGI: 3340 nM
[27]
  GI50: 1970 nM
  TGI: > 100000 nM
[28]
  GI50: 1950 nM
  TGI: 4310 nM
[29]
  GI50: 1690 nM
  TGI: 3080 nM
[30]
  GI50: 1660 nM
  TGI: 3350 nM
[31]
  GI50: 1900 nM
  TGI: 3860 nM
[32]
  GI50: 1820 nM
  TGI: 3350 nM
[33]
  GI50: 1860 nM
  TGI: 4020 nM
[34]
  GI50: 1810 nM
  TGI: 5310 nM
[35]
  GI50: 1950 nM
  TGI: 4700 nM
[36]
  GI50: 2020 nM
  TGI: 8620 nM
[37]
  GI50: 1400 nM
  TGI: 2840 nM
[38]
  GI50: 3200 nM
  TGI: 20500 nM
[39]
  GI50: 1640 nM
  TGI: 3050 nM
[40]
  GI50: 1840 nM
  TGI: 3260 nM
[41]
  GI50: 1740 nM
  TGI: 3540 nM
[42]
  GI50: 1770 nM
  TGI: 3380 nM
[43]
  GI50: 1400 nM
  TGI: 2700 nM
[44]
  GI50: 4750 nM
  TGI: 18700 nM
[45]
  GI50: 1870 nM
  TGI: 3960 nM
[46]
  GI50: 1850 nM
  TGI: 3780 nM
[47]
  GI50: 1360 nM
  TGI: 3900 nM
[48]
  GI50: 3790 nM
  TGI: > 100000 nM
[49]
  GI50: 1730 nM
  TGI: 3680 nM
[50]
  GI50: 1420 nM
  TGI: 3470 nM
[51]
  GI50: 1780 nM
  TGI: 3390 nM
[52]
  GI50: 1840 nM
  TGI: 3710 nM
[53]
  GI50: 1900 nM
  TGI: 3800 nM
[54]
  GI50: 1650 nM
  TGI: 3200 nM
[55]
  GI50: 1350 nM
  TGI: 2690 nM

Source: PubChem BioAssay (NCI)
